Experimental data as given in patent US20130071328A1, “Propynoic Acid Carbamoyl Methyl-Amides and Pharmaceutical Compositions and Methods Based Thereon” (UNIVERSITY OF SOUTHERN CALIFORNIA, priority 2011, published 2013).

Assays:
[1] = tested on: OVCAR8 ovarian cancer cell line; experiment: In vitro cytotoxicity, OVCAR8; assay type: cell-based; settings: Homo sapiens, OVCAR-8; Table 4, ovarian cancer panel
Procedure: (§1) Cytotoxicity was assessed by MTT assay as described previously. 43 In brief, cells were seeded in 96-well microtiter plates and allowed to attach overnight. Cells were subsequently treated with continuous exposure to corresponding drugs for 72 h. At the end of treatments, an MTT solution (at a final concentration of 0.5 mg/mL) was added to each well, and cells were incubated for 4 h at 37° C. After removal of the supernatant, DMSO was added, and the absorbance was read at 570 nm. All assays were done in triplicate. The IC50 was then determined for each drug from a plot of log(drug concentration) versus percentage of cells killed.

[2] = tested on: doxorubicin-resistant NCI/ADR-RES ovarian cancer cell line; experiment: Cytotoxicity assay, NCI/ADR-RES; assay type: cell-based; settings: Homo sapiens
Procedure: as §1

[3] = tested on: OVCAR3 ovarian cancer cell line; experiment: In vitro cytotoxicity, OVCAR3; assay type: cell-based; settings: Homo sapiens, OVCAR-3; Table 4, ovarian cancer panel
Procedure: as §1

[4] = tested on: HCT116 p53^−/− colon cancer cell line; experiment: MTT cytotoxicity assay, HCT116 p53-/-; assay type: cell-based; settings: Homo sapiens, HCT-116, 72 h exposure
Source text: (§2) The human breast cancer cell line MDA-MB-435 and the colon cancer cell line HT29 were purchased from the American Type Cell Culture (Manassas, Va.). Colon cancer cell lines HCT116 p53^+/+ and HCT116 p53^−/− were kindly provided by Dr. Bert Vogelstein (Johns Hopkins Medical Institutions, Baltimore, Md.). The human ovarian carcinoma cell line (HEY), naturally resistant to cisplatin (CDDP), was kindly provided by Dr. Louis Dubeau (USC Norris Cancer Center). The bladder cancer cell lines were kindly provided by Dr. Richard Cote (USC Keck School of Medicine). Cells were maintained as monolayer cultures in the appropriate media: RPMI-1640 (HT29, HCT116 p53^+/+, HCT116 p53^−/−, and HEY cell lines) or DMEM (MDA-MB-435 and UMUC3 cell lines) supplemented with 10% fetal bovine serum (FBS) (HyClone, Road Logan, Utah) at 37° C. in a humidified atmosphere of 5% CO2. To remove the adherent cells from the flask for subculture and counting, cells were washed with PBS without calcium or magnesium, incubated with a small volume of 1×trypsin-EDTA solution (Sigma-Aldrich, St. Louis, Mo.) for 5 min, resuspended with fresh culture medium, and centrifuged at 1200 rpm for 5 min. All experiments were performed using cells in exponential growth phase. Cells were routinely checked for Mycoplasma contamination using PlasmaTest kit (InvivoGen, San Diego, Calif.).
as §1

[5] = tested on: HT29 colon cancer cell line; experiment: MTT cytotoxicity assay, HT29; assay type: cell-based; settings: Homo sapiens, HT-29, 72 h exposure
Source text: as §2, §1

[6] = tested on: HCT116 p53^+/+ colon cancer cell line; experiment: MTT cytotoxicity assay, HCT116 p53+/+; assay type: cell-based; settings: Homo sapiens, HCT-116, 72 h exposure
Source text: as §2, §1

[7] = tested on: HEY ovarian cancer cell line; experiment: Cytotoxicity assay, HEY; assay type: cell-based; settings: Homo sapiens
Source text: as §2, §1

[8] = tested on: MDA-MB-435 breast cancer cell line; experiment: MTT cytotoxicity assay, MDA-MB-435; assay type: cell-based, human; settings: Homo sapiens, MDA-MB-435, 72 h, 72 h exposure
Source text: as §2, §1

[9] = tested on: 5637 bladder cancer cell line; experiment: MTT cytotoxicity assay, 5637; assay type: cell-based, human; settings: Homo sapiens, 72 h exposure
Source text: as §2, §1

[10] = tested on: UMUC3 bladder cancer cell line; experiment: MTT cytotoxicity assay, UMUC3; assay type: cell-based; settings: Homo sapiens, 72 h exposure
Source text: as §2, §1

Row | Compound | IC50 [1] | IC50 ([2]; Table 4, ovarian cancer panel) | IC50 [3] | IC50 [4] | IC50 [5] | IC50 [6] | IC50 ([7]; MTT, 72 h exposure (Table 2)) | IC50 ([2]; MTT, 72 h exposure (Table 2)) | IC50 [8] | IC50 [9] | IC50 [10] | IC50 ([7]; Table 4, ovarian cancer panel)
1 | C#CC(=O)N(CC(=O)NCC(=O)OCC)c1ccc(OC)cc1OC [Compound 43] | 2.2 µM | 0.14 µM | 0.3 µM |  |  |  |  |  |  |  |  | 
2 | C#CC(=O)NCC(=O)N(c1ccc(OC)cc1OC)C(C(=O)NC1CCCC1)c1cccs1 (stereo not drawn) [Compound 36] | 3.1 µM | 8.5 µM | 2.3 µM |  |  |  |  |  |  |  |  | 
3 | C#CC(=O)N(Cc1ccco1)C(C(=O)NC1CCCC1)c1ccccc1F (stereo not drawn) [Compound 10, N-[2-(Cyclopentylamino)-1-(2-fluorophenyl)-2-oxoethyl]-N-(2-furylmethyl)Propynamide] |  |  |  | 13 ± 2.8 µM | > 10 µM | 10.5 µM | 4.3 ± 3.9 µM | 1.2 ± 0.4 µM | 1.7 ± 0.6 µM | 2.9 ± 0.8 µM | > 20 µM | 
4 | C#CC(=O)N(c1ccc(OC)cc1OC)C(C(=O)NCC(=O)NCCN1CCOCC1)c1cccs1 (stereo not drawn) [Compound 45] | 5 µM | > 10 µM |  |  |  |  |  |  |  |  |  | 0.32 µM
5 | C#CC(=O)N(C)C(C(=O)NC1CCCC1)c1cccs1 (stereo not drawn) [Compound 25] | 2.2 µM | 0.32 µM | 0.53 µM |  |  |  |  |  |  |  |  | 
6 | C#CC(=O)N(Cc1ccccc1Cl)C(C(=O)NC1CCCC1)c1ccccc1 (stereo not drawn) [Compound 17, N-(2-Chlorobenzyl)-N-[2-(cyclopentylamino)-2-oxo-1-phenylethyl]Propynamide] |  |  |  | 7.3 ± 1.4 µM | 5.4 ± 3 µM | 7.7 ± 0.5 µM | 5.8 ± 1.3 µM | 2.2 ± 0.2 µM | 8.2 ± 0.2 µM | 1.8 ± 0.1 µM | > 20 µM | 
7 | C#CC(=O)N(Cc1ccc(OC)cc1OC)C(C(=O)NCC(=O)OCC)c1ccccc1 (stereo not drawn) [Compound 42] | 3.4 ± 0.4 µM |  |  |  |  |  |  |  |  |  |  | 
8 | C#CC(=O)N(c1cccc(C(F)(F)F)c1)C(C(=O)NC1CCCCC1)c1cccs1 (stereo not drawn) [Compound 13, N-[2-(Cyclohexylamino)-2-oxo-1-thien-2-ylethyl]-N-[3-(trifluoromethyl)phenyl]Propynamide] |  |  |  | 10.4 ± 0.2 µM | 6 ± 1.4 µM | 8.3 ± 1.1 µM | 5.2 ± 3.6 µM | 0.4 µM | 6.9 ± 0.8 µM | 1.6 ± 0.7 µM | > 20 µM | 
9 | C#CC(=O)N(c1ccc(OC)cc1OC)C(C(=O)NCC(=O)OCC)c1ccccc1 (stereo not drawn) [Compound 41] | 0.4 ± 0.2 µM |  |  |  |  |  |  |  |  |  |  | 
10 | C#CC(=O)N(c1ccc(O)cc1OC)C(C(=O)NCC(=O)OCC)c1cccs1 (stereo not drawn) [Compound 40] | 10.4 ± 1.6 µM | 12.8 ± 3.8 µM |  |  |  |  |  |  |  |  |  | 
11 | C#CC(=O)N(c1cccc(C(F)(F)F)c1)C(C(=O)NCc1ccccc1)c1cccs1 (stereo not drawn) [Compound 16, N-[2-(Benzylamino)-2-oxo-1-thien-2-ylethyl]-N-[3-(trifluoromethyl)-phenyl]Propynamide] |  |  |  | 16.1 ± 5.6 µM | 7.3 ± 0.3 µM | 9 ± 1.4 µM | 7.1 ± 2.6 µM | 0.7 ± 0.6 µM | 4.2 ± 3 µM | 1.2 ± 1.1 µM | > 20 µM | 
12 | C#CC(=O)N(c1cc(OC)ccc1OC)C(C(=O)NC1CCCC1)c1cccs1 (stereo not drawn) [Compound 7, N-[2-(Cyclopentylamino)-2-oxo-1-thien-2-ylethyl]-N-(2,5-dimethoxyphenyl)Propynamide] |  |  |  | 4.7 ± 2.3 µM | 1.6 ± 1 µM | 5.7 ± 0.6 µM | 1.5 ± 1.1 µM | 0.3 µM | 0.5 ± 0.3 µM | 0.3 µM | 5.7 ± 1.5 µM | 
13 | C#CC(=O)N(c1ccc(OC)cc1OC)C(C(=O)NC1CCCC1)c1cccs1 (stereo not drawn) [Compound 5, N-[2-(Cyclopentylamino)-2-oxo-1-thien-2-ylethyl]-N-(2,4-dimethoxyphenyl)Propynamide] |  |  |  | 7 ± 0.7 µM | 2.3 ± 0.3 µM | 6.9 ± 0.6 µM | 4.1 ± 3.4 µM | 0.4 µM | 1.7 ± 0.5 µM | 1.7 ± 0.8 µM | > 20 µM | 
14 | C#CC(=O)N(c1ccc(-n2cnnn2)c(C)c1)C(C(=O)NCC(=O)OCC)c1ccccc1F (stereo not drawn) [Compound 20] | 0.2 µM | 1.3 µM |  |  |  |  |  |  |  |  |  | 
